Source: patent US20260042731A1, “(2,4-DICHLOROPHENOXY)ACETIC ACID ANALOGS” (CORTEVA AGRISCIENCE LLC, priority 2022, published 2026)
Where two headings read alike, the source gives them in different places.

Legend:
[1] = tested on: Chenopodium album (CHEAL), common lambsquarters; experiment: Postemergence herbicide evaluation, growth of Chenopodium album (CHEAL); type: in vivo; conditions: Chenopodium album, post-emergence, read-out: Ave. CHEAL, percent reduction in plant size relative to the untreated control
[2] = tested on: Abutilon theophrasti (ABUTH), velvetleaf; experiment: Postemergence herbicide evaluation, growth of Abutilon theophrasti (ABUTH); type: in vivo; conditions: Abutilon theophrasti, post-emergence, read-out: AVE. ABUTH, percent reduction in plant size relative to the untreated control
[3] = tested on: Amaranthus rudis (AMATA), tall water hemp; experiment: Postemergence herbicide evaluation, growth of Amaranthus rudis (AMATA); type: in vivo; conditions: Amaranthus tuberculatus, post-emergence, read-out: Ave. AMATA, percent reduction in plant size relative to the untreated control
[4] = tested on: glyphosate resistant Conyza canadensis (L.) (ERICA), horseweed; experiment: Postemergence herbicide evaluation, growth of Conyza canadensis (ERICA); type: in vivo; conditions: Erigeron canadensis, post-emergence, read-out: Ave. ERICA, percent reduction in plant size relative to the untreated control
[5] = Volatility of compounds measured by thermogravimetric analysis (TGA); type: physicochemical
[6] = tested on: Ambrosia artemisiifolia (AMBEL), common ragweed; experiment: Postemergence herbicide evaluation, growth of Ambrosia artemisiifolia (AMBEL); type: in vivo; conditions: Ambrosia artemisiifolia, post-emergence, read-out: AVE. AMBEL, percent reduction in plant size relative to the untreated control
[7] = tested on: weeds ABUTH, AMATA, AMBEL, CHEAL, ERICA; experiment: Postemergence herbicide evaluation, overall average % weed control (ABUTH, AMATA, AMBEL, CHEAL, ERICA); type: in vivo; conditions: post-emergence, read-out: Overall Ave % Weed Control

SMILES | pest or weed control at 280 g/ha ([1]; 168 h) | pest or weed control at 560 g/ha ([1]; 168 h) | pest or weed control at 280 g/ha ([1]; 336 h) | pest or weed control at 560 g/ha ([1]; 336 h) | pest or weed control at 280 g/ha ([1]; 504 h) | pest or weed control at 560 g/ha ([1]; 504 h) | pest or weed control at 280 g/ha ([2]; 168 h) | pest or weed control at 560 g/ha ([2]; 168 h) | pest or weed control at 280 g/ha ([2]; 336 h) | pest or weed control at 560 g/ha ([2]; 336 h) | pest or weed control at 280 g/ha ([2]; 504 h) | pest or weed control at 560 g/ha ([2]; 504 h) | pest or weed control at 280 g/ha ([3]; 168 h) | pest or weed control at 560 g/ha ([3]; 168 h) | pest or weed control at 280 g/ha ([3]; 336 h) | pest or weed control at 560 g/ha ([3]; 336 h) | pest or weed control at 280 g/ha ([3]; 504 h) | pest or weed control at 560 g/ha ([3]; 504 h) | pest or weed control at 280 g/ha ([4]; 168 h) | pest or weed control at 560 g/ha ([4]; 168 h) | also measured
O=C(COc1ccc(Cl)cc1Cl)Nc1ccncc1 [Compound D1, 2-(2,4-Dichlorophenoxy)-N-(pyridin-4-yl)acetamide] | 68% | 75% | 78% | 85% | 97% | 93% | 78% | 78% | 88% | 80% | 93% | 87% | 68% | 78% | 75% | 85% | 78% | 90% | 70% | 65% | pest or weed control at 280 g/ha ([4]; 336 h): 88%; pest or weed control at 560 g/ha ([4]; 336 h): 90%; pest or weed control at 280 g/ha ([4]; 504 h): 99%; pest or weed control at 560 g/ha ([4]; 504 h): 97%; TGA Data (rate of weight loss, volatility) [5]: 0.05 µg/min; pest or weed control at 280 g/ha ([6]; 168 h): 60%; pest or weed control at 560 g/ha ([6]; 168 h): 65%; pest or weed control at 280 g/ha ([6]; 336 h): 89%; pest or weed control at 560 g/ha ([6]; 336 h): 94%; pest or weed control at 280 g/ha ([6]; 504 h): 78%; pest or weed control at 560 g/ha ([6]; 504 h): 99%; pest or weed control at 280 g/ha ([7]; 168 h): 69%; pest or weed control at 560 g/ha ([7]; 168 h): 72%; pest or weed control at 280 g/ha ([7]; 336 h): 83%; pest or weed control at 560 g/ha ([7]; 336 h): 87%; pest or weed control at 280 g/ha ([7]; 504 h): 89%; pest or weed control at 560 g/ha ([7]; 504 h): 93%
O=C(COc1ccc(Cl)cc1Cl)n1ncc2ccccc21 [Compound D3, 2-(2,4-Dichlorophenoxy)-1-(1H-indazol-1-yl)ethanone] | 68% | 68% | 63% | 70% | 63% | 70% | 30% | 48% | 25% | 43% | 23% | 35% | 70% | 73% | 73% | 80% | 75% | 78% | 63% | 68% | pest or weed control at 280 g/ha ([4]; 336 h): 83%; pest or weed control at 560 g/ha ([4]; 336 h): 85%; pest or weed control at 280 g/ha ([4]; 504 h): 84%; pest or weed control at 560 g/ha ([4]; 504 h): 88%; TGA Data (rate of weight loss, volatility) [5]: 0.03 µg/min; pest or weed control at 280 g/ha ([6]; 168 h): 63%; pest or weed control at 560 g/ha ([6]; 168 h): 68%; pest or weed control at 280 g/ha ([6]; 336 h): 75%; pest or weed control at 560 g/ha ([6]; 336 h): 90%; pest or weed control at 280 g/ha ([6]; 504 h): 73%; pest or weed control at 560 g/ha ([6]; 504 h): 95%; pest or weed control at 280 g/ha ([7]; 168 h): 59%; pest or weed control at 560 g/ha ([7]; 168 h): 65%; pest or weed control at 280 g/ha ([7]; 336 h): 64%; pest or weed control at 560 g/ha ([7]; 336 h): 74%; pest or weed control at 280 g/ha ([7]; 504 h): 63%; pest or weed control at 560 g/ha ([7]; 504 h): 73%
